Earlier results in EP1382610A2, “Conductive metal-containing nucleic acids” (The University of Saskatchewan, priority 1997, dated 1999).

Conditions: imino protons

pKa | Structure (SMILES)
9.4 | Nc1nc2nc[nH]c2c(=O)[nH]1 [G, guanine]
9.9 | Cc1c[nH]c(=O)[nH]c1=O [T, thymine]
